Patent US20240261257A1, “METHODS OF TREATING BACTERIAL INFECTIONS” (Sheba Impact Ltd., priority 2023, published 2024)

Key:
MRSA SA 198 USA300 = experiment: broth microdilution growth inhibition (CLSI), MRSA SA 198; format: cell-based, S. aureus; conditions: CAMHB broth microdilution, read-out: concentration (μM) which inhibits 50% (or more) growth
Experimental: (§1) Iron-free enterobactin from E. coli was purchased from Sigma-Aldrich (E3910) and from EMC (Tübingen, Germany), iron-free salmochelin S4 was purchased from EMC (Tübingen, Germany).
(§2) Bacterial strains were provided by the Clinical Microbiology Laboratory at Sheba Medical Center.
(§3) Bacterial final inoculum was 5×10^5 colony-forming units ml^−1. Enterobactin and salmochelin were dissolved in 100% dimethylsulfoxide (DMSO) to a stock solution of 10 μM and further diluted using CAMHB to final concentrations.

S. aureus ATCC 25923 = experiment: broth microdilution growth inhibition (CLSI), S. aureus ATCC 25923; format: cell-based; conditions: CAMHB broth microdilution, read-out: concentration (μM) which inhibits 50% (or more) growth
Experimental: as §1, §2, §3

MRSA SA 196 = experiment: broth microdilution growth inhibition (CLSI), MRSA SA 196; format: cell-based, S. aureus; conditions: CAMHB broth microdilution, read-out: concentration (μM) which inhibits 50% (or more) growth
Experimental: as §1, §2, §3

MRSA SA 255 = experiment: broth microdilution growth inhibition (CLSI), MRSA SA 255; format: cell-based, S. aureus; conditions: CAMHB broth microdilution, read-out: concentration (μM) which inhibits 50% (or more) growth
Experimental: as §1, §2, §3

VRE 195 = experiment: inhibitory effect on clinical isolate VRE 195; format: cell-based, vancomycin resistant Enterococci; conditions: FIG. 2A, FIG. 3A
Experimental: as §1, §2, §3

MRSA SA 742 USA300 = experiment: broth microdilution growth inhibition (CLSI), MRSA SA 742 USA300; format: cell-based, S. aureus; conditions: CAMHB broth microdilution, read-out: concentration (μM) which inhibits 50% (or more) growth
Experimental: as §1, §2, §3

VRE 197 = experiment: inhibitory effect on clinical isolate VRE 197; format: cell-based, vancomycin resistant Enterococci; conditions: FIG. 2B, FIG. 3B
Experimental: as §1, §2, §3

MSSA SA 197 USA300 = experiment: broth microdilution growth inhibition (CLSI), MSSA SA 197 USA300; format: cell-based, S. aureus; conditions: CAMHB broth microdilution, read-out: concentration (μM) which inhibits 50% (or more) growth
Experimental: as §1, §2, §3

[1] = system: clinical isolates of MRSA USA300; experiment: inhibitory effect on clinical isolates of MRSA USA300 (FIGS. 1A-B); format: cell-based, Staphylococcus aureus
Experimental: as §1, §2, §3

MSSA SA 256 = experiment: broth microdilution growth inhibition (CLSI), MSSA SA 256; format: cell-based, S. aureus; conditions: CAMHB broth microdilution, read-out: concentration (μM) which inhibits 50% (or more) growth
Experimental: as §1, §2, §3

S. aureus = experiment: antimicrobial activity against S. aureus (combinations, iron ions; strain not named); format: cell-based; conditions: iron ions added; FIGS. 6A-B
Experimental: as §1, §2, §3

| Compound | IC50 (MRSA SA 198 USA300) | IC50 (S. aureus ATCC 25923) | IC50 (MRSA SA 196) | IC50 (MRSA SA 255) | inhibitory effect on clinical isolates of VRE 195 (VRE 195) | IC50 (MRSA SA 742 USA300) | inhibitory effect on clinical isolates of VRE 197 (VRE 197) | IC50 (MSSA SA 197 USA300) | inhibitory effect on clinical isolates of MRSA USA300 [1] | IC50 (MSSA SA 256) | antimicrobial activity against S. aureus in the presence of iron ions (S. aureus) |
| --- | --- | --- | --- | --- | --- | --- | --- | --- | --- | --- | --- |
| O=C(N[C@H]1COC(=O)[C@@H](NC(=O)c2cccc(O)c2O)COC(=O)[C@@H](NC(=O)c2cccc(O)c2O)COC1=O)c1cccc(O)c1O [Enterobactin, enterobactin] | > 5 µM | 6 ± 2.7 µM | 5 µM | > 5 µM | inhibitory effect | 10 µM | inhibitory effect | > 5 µM | inhibitory effect | > 5 µM | reduce but do not abolish |
| O=C(N[C@H]1COC(=O)[C@@H](NC(=O)c2cc([C@@H]3O[C@H](CO)[C@@H](O)[C@H](O)[C@H]3O)cc(O)c2O)COC(=O)[C@@H](NC(=O)c2cc([C@@H]3O[C@H](CO)[C@@H](O)[C@H](O)[C@H]3O)cc(O)c2O)COC1=O)c1cccc(O)c1O [Salmochelin, Salmochelin S4] | 5 µM | 2.4 ± 0.22 µM | 2.5 µM | 5 µM | inhibitory effect | 3.12 ± 1.25 µM | inhibitory effect | 2.5 µM | inhibitory effect | 5 µM | reduce but do not abolish |
